For data set [1], the target named is T1, human N-type calcium channel (Homo sapiens, UniProt Q00975).
T1 construct: expressed in transfected cells; host or cells: HEK 293 (human embryonic kidney) cells
Format: cell-based.

In data set [2] the target is T1, human N-type calcium channel. The data set is classed as cell-based. The source holds these as a separate data set.
Data set [3] concerns ICR mice. The following applies: mouse, in vivo.
The subject of data set [4] is ICR mice. The following applies: mouse, in vivo. This is another data set of the same source.
Data set [5] relates to ICR mice. The following applies: mouse, in vivo. The source holds these as a separate data set.
Data set [6] concerns ICR mice. The following applies: mouse, in vivo. The source holds these as a separate data set.
The subject of data set [7] is ICR mice. The following applies: mouse, in vivo, ip.
The test system of data set [8] is ICR mice. The following applies: mouse, in vivo. The source holds these as a separate data set.
Data set [9] relates to Sprague-Dawley male rats. The following applies: rat, in vivo.
Data set [10] relates to Sprague-Dawley male rats. The following applies: rat, in vivo. This is another data set of the same source.
Data set [11] has as its system Sprague-Dawley male rats. The following applies: rat, in vivo. The source holds these as a separate data set.
Data set [12] has as its system Sprague-Dawley male rats. The following applies: rat, in vivo, iv.

Three compounds from US8673856B2 (Anygen Co., Ltd., priority 2006, dated 2014) can be followed below.

T1 sequence (Q00975 whole entry, looked up): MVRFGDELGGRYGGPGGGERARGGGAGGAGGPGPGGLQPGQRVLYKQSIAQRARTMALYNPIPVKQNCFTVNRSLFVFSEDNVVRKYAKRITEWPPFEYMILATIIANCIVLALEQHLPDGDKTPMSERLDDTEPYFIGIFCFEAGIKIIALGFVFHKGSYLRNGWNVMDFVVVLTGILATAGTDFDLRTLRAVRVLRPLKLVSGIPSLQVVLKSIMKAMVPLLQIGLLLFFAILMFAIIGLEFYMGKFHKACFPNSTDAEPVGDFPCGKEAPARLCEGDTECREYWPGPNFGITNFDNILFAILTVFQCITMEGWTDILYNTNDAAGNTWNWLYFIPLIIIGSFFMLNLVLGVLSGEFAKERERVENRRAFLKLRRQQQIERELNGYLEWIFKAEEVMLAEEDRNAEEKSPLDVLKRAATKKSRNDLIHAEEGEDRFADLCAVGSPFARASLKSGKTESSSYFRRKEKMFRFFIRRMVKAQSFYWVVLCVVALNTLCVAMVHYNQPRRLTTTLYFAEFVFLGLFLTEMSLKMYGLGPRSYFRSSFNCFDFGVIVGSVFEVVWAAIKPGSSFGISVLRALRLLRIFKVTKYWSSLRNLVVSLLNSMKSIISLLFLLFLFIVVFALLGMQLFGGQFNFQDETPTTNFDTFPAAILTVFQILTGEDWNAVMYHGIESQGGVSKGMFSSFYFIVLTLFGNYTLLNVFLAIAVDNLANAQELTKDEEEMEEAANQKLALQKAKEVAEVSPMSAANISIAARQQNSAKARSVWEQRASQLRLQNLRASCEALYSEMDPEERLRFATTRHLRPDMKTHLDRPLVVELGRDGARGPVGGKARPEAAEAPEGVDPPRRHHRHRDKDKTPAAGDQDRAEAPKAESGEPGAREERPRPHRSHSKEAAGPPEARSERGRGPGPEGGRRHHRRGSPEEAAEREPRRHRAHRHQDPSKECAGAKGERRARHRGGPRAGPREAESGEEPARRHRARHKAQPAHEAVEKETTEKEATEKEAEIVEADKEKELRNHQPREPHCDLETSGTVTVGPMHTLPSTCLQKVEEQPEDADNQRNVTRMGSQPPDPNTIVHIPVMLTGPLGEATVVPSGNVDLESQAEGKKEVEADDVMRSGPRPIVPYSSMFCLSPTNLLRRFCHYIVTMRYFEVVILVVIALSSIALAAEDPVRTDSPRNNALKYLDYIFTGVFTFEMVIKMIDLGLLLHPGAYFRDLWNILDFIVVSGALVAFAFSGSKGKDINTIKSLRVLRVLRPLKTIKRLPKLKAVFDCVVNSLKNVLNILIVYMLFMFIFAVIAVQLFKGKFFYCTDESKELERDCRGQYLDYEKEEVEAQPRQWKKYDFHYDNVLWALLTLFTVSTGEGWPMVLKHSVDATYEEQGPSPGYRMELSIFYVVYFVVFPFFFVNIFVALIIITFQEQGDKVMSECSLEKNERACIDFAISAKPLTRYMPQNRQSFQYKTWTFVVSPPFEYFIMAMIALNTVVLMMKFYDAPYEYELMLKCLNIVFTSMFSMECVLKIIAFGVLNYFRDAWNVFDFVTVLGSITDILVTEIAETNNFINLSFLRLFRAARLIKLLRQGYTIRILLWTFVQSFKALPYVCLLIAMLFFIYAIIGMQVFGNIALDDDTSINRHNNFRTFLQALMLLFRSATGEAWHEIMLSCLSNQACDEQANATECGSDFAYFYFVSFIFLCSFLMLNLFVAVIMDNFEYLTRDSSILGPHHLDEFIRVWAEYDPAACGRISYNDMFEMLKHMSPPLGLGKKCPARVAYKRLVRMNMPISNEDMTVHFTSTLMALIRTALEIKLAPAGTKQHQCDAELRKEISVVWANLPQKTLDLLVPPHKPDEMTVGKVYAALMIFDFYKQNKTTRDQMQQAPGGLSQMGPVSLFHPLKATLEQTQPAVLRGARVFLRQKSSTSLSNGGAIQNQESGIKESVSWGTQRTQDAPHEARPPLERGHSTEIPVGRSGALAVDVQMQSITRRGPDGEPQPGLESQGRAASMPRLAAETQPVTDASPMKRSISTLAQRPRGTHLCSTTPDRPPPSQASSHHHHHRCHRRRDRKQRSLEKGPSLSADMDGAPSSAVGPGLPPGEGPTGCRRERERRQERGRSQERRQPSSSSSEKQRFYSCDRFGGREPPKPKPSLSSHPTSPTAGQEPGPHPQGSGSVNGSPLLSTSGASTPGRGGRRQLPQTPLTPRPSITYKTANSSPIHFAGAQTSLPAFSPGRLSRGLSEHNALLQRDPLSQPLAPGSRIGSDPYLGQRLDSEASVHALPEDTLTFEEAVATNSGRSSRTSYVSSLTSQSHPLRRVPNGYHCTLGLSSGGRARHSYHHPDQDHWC

As usually defined, the IC50 is the concentration needed to halve the response being measured. In the case of `CC[C@H](C)[C@@H]1NC(=O)[C@H](CCCNC(=N)N)NC(=O)[C@H](CO)NC(=O)[C@@H]2CSSC[C@@H]3NC(=O)[C@H](CO)NC(=O)CNC(=O)[C@H]([C@@H](C)O)NC(=O)[C@H](CSSC[C@H](N)C(=O)N[C@@H](CCCCN)C(=O)NCC(=O)N[C@@H]([C@@H](C)O)C(=O)NCC(=O)N[C@@H](CCCCN)C(=O)N[C@@H](CO)C(=O)N2)NC(=O)[C@H](CSSC[C@@H](C(N)=O)NC(=O)[C@H](CCCCN)NC(=O)CNC(=O)[C@H](CO)NC(=O)[C@H](CCCNC(=N)N)NC3=O)NC(=O)[C@H](CC(N)=O)NC(=O)[C@H](Cc2ccc(O)cc2)NC(=O)[C@H](C)NC1=O` [FVIA, CKGTGKSCSRIAYNCCTGSCRSGKC-NH2], the “Current-voltage curve” value in [1] is “curve inhibition without the horizontal curve shift”. Also, the IC50 in data set [1] (read-out: IC50 from dose-inhibition curve) was determined as 11.5 ± 1.4 nM. In addition, the “Dissociation on washout” value in data set [2] is given as “better dissociation comparing MVIIA washout”. In the data set on ICR mice [3], the “Withdrawal latency, tail-flick test” value is on record as “not effective in increasing withdrawal latency”. Moreover, the “Withdrawal latency, plantar test” value in the data set with ICR mice [4] is reported as “not effective in increasing withdrawal latency”. Besides, in the data set on ICR mice [5], the “Cumulative pain response, glutamate-induced” value was “significantly decreased cumulative pain response rate”. In the data set on ICR mice [6], the “Cumulative pain response, substance P-induced” value was “significantly decreased cumulative pain response rate”. For the same compound, the “Count of writhing responses” value in the data set with ICR mice [7] was “significantly decreased”. Further, in the data set with ICR mice [8], the “Cumulative pain response, formalin test” value was “significantly decreased cumulative pain response rate in both the first phase and the second phase”; the “Dose dependence of analgesic effect, formalin test” value is “analgesic effect in a dose-dependent manner”; the “Pain behaviors in the second phase, formalin test” value is recorded as “completely prevented pain behaviors in the second phase”. Also, in the data set with Sprague-Dawley male rats [9], the “50% withdrawal threshold, mechanical allodynia” value is on record as “elevate 50% withdrawal threshold in a dose dependent manner”. In addition, the “Analgesic effect on cold allodynia” value with Sprague-Dawley male rats [10] is “exhibits analgesic effects on cold and warm allodynia”. In the data set on Sprague-Dawley male rats [11], the “Analgesic effect on warm allodynia” value is “exhibits analgesic effects on cold and warm allodynia”. Also, the “Mean arterial pressure (MAP) time course” value in the data set on Sprague-Dawley male rats [12] was “much better recovery in MAP”.
As for `CSCC[C@@H]1NC(=O)[C@H](CC(C)C)NC(=O)[C@H](CCCNC(=N)N)NC(=O)[C@H](CO)NC(=O)[C@@H]2CSSC[C@@H]3NC(=O)[C@H](CO)NC(=O)CNC(=O)[C@H]([C@@H](C)O)NC(=O)[C@H](CSSC[C@H](N)C(=O)N[C@@H](CCCCN)C(=O)NCC(=O)N[C@@H](CCCCN)C(=O)NCC(=O)N[C@@H](C)C(=O)N[C@@H](CCCCN)C(=O)N2)NC(=O)[C@H](CSSC[C@@H](C(N)=O)NC(=O)[C@H](CCCCN)NC(=O)CNC(=O)[C@H](CO)NC(=O)[C@H](CCCNC(=N)N)NC3=O)NC(=O)[C@H](CC(=O)O)NC(=O)[C@H](Cc2ccc(O)cc2)NC1=O` [MVIIA, CKGKGAKCSRLMYDCCTGSCRSGKC-NH2], in the data set on Sprague-Dawley male rats [12], the “Arterial pressure after lapse of time” value is “around 60 mmHg”; the “Mean arterial pressure (MAP) time course” value is “sharp decrease in MAP at an initial stage and slow recovery in MAP”.
Consider “CKGKGAKCSRIAYNCCTGSCRSGKC-NH2 [Chimera-MFMM]”, for which the “Calcium channel blocking activity” value in data set [1] is “significant calcium channel blocking activity”. Also, the “Recovery relative to MVIIA” value in data set [2] is around 2 fold.
